Experimental data: ChEMBL document CHEMBL1150846, “Thorectandrols A and B, new cytotoxic sesterterpenes from the marine sponge Thorectandra species” (J Nat Prod, 2001)
Values after ≈ are worked out from the molar mass of the structure shown.

Columns and labels:
Malme-3M = assay: Cytotoxicity against human MALME-3M cells after 2 days by XTT assay; type: functional, cell-based; conditions: 48 h
MCF7 = assay: Cytotoxicity against human MCF7 cells after 2 days by XTT assay; type: functional, cell-based; conditions: MCF7, 48 h

## C=C1CCC[C@@H]2[C@@](C)(CC/C(C)=C/C[C@@H](O)C3=CC(=O)OC3O)[C@@H](C)CC[C@@]12C (some centres not stated) [PALAUOLOL]
Malme-3M
  IC50: 0.46 µg/mL (≈ 1.14 µM)
MCF7
  IC50: 14.2 µg/mL (≈ 35.3 µM)
